{"source": "patent US10287301B2", "about": "(Achillion Pharmaceuticals, Inc., priority 2015, dated 2019)", "data": [{"target": "Human Factor D (Homo sapiens (Human), UniProt P00746)", "sequence (P00746 26-253)": "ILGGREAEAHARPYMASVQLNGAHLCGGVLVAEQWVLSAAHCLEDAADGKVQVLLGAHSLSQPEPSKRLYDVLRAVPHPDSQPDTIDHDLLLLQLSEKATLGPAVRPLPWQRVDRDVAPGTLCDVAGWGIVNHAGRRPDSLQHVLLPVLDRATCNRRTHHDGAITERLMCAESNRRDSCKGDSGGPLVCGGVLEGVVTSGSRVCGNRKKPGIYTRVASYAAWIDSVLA", "assay": "Human Factor D Assay", "format": "biochemical", "details": "not given", "outline": "(§1)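 Thioester cleavage assay: human Factor D (serum-derived, 80 nM final), substrate Z-L-Lys-SBzl with DTNB, both 100 μM final, after 5 min compound preincubation at room temperature.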", "units": {"IC50": "µM"}, "values": [{"compound": "Cc1cccc(NC(=O)[C@@H]2[C@H]3CC[C@H](C3)N2C(=O)Cn2cc(C(N)=O)c3cc(-c4ccc(F)nc4)ccc32)n1", "note": "[Compound 500, 5-(6-Fluoropyridin-3-yl)-1-(2-((1R,3S,4S)-3-(6-methylpyridin-2-ylcarbamoyl)-2-azabicyclo[2.2.1]heptan-2-yl)-2-oxoethyl)-1H-indole-3-carboxamide]", "IC50": "> 10"}, {"compound": "CC(=O)c1cn(CC(=O)N2C[C@H](F)C[C@H]2C(=O)Nc2cccc(-c3ccccc3Cl)c2Cl)c2ccc(-c3cnc(C)nc3)cc12", "note": "[Compound 149, (2S,4R)-1-(2-(3-acetyl-5-(2-methylpyrimidin-5-yl)-1H-indol-1-yl)acetyl)-N-(2,2′-dichlorobiphenyl-3-yl)-4-fluoropyrrolidine-2-carboxamide]", "IC50": "< 1"}]}, {"target": "Human Factor D (Homo sapiens (Human), UniProt P00746)", "assay": "Human Factor D Assay", "format": "biochemical", "details": "Human Factor D 80 nM, substrate Z-L-Lys-SBzl; read-out: IC50", "outline": "as §1", "units": {"IC50": "µM"}, "values": [{"compound": "NC(=O)c1nn(CC(=O)N2C[C@H](F)C[C@H]2C(=O)Nc2nnc(-c3ccc(Cl)c(Cl)c3)s2)c2ccc(-c3ccnnc3)cc12", "note": "[Compound 69, 1-(2-((2S,4R)-2-(5-(3,4-dichlorophenyl)-1,3,4-thiadiazol-2-ylcarbamoyl)-4-fluoropyrrolidin-1-yl)-2-oxoethyl)-5-(pyridazin-4-yl)-1H-indazole-3-carboxamide]", "IC50": "> 10"}]}, {"target": "Human Factor D (Homo sapiens (Human), UniProt P00746)", "assay": "Human Factor D Assay", "format": "biochemical", "details": "Human Factor D assay of Example 8; Table 2; read-out: IC50", "outline": "as §1", "units": {"IC50": "µM"}, "values": [{"compound": "CC(=O)c1nn(CC(=O)N2CSC(C)(C)[C@H]2C(=O)NCc2cccc(Cl)c2F)c2ccc(-c3cnc(C)nc3)cc12", "note": "[Compound 329, (R)-3-(2-(3-acetyl-5-(2-methylpyrimidin-5-yl)-1H-indazol-1-yl)acetyl)-N-(3-chloro-2-fluorobenzyl)-5,5-dimethylthiazolidine-4-carboxamide]", "IC50": "1 to 10"}, {"compound": "COCCNc1ncc(-c2ccc3c(c2)c(C(C)=O)nn3CC(=O)N2C[C@H](F)C[C@H]2C(=O)Nc2cccc(Br)n2)cn1", "note": "[Compound 269, (2S,4R)-1-(2-(3-acetyl-5-(2-(2-methoxyethylamino)pyrimidin-5-yl)-1H-indazol-1-yl)acetyl)-N-(6-bromopyridin-2-yl)-4-fluoropyrrolidine-2-carboxamide]", "IC50": "< 1"}, {"compound": "CC(=O)c1nn(CC(=O)N2C[C@H](F)C[C@H]2C(=O)Nc2cccc(Br)n2)c2ccc(-c3cnc(C4CC4)nc3)cc12", "note": "[Compound 259]", "IC50": "< 1"}]}, {"target": "Human Factor D (Homo sapiens (Human), UniProt P00746)", "assay": "Human Factor D Assay", "format": "biochemical", "details": "Human Factor D, Table 3; read-out: IC50", "outline": "as §1", "units": {"IC50": "µM"}, "values": [{"compound": "CC(=O)c1nn(CC(=O)N2CC[C@H]2C(=O)Nc2cccc(C)n2)c2ccc(-c3cnc4ncccn34)cc12", "note": "[Compound 709, (S)-1-(2-(3-Acetyl-5-(imidazo[1,2-a]pyrimidin-3-yl)-1H-indazol-1-yl)acetyl)-N-(6-methylpyridin-2-yl)azetidine-2-carboxamide]", "IC50": "< 1"}, {"compound": "CC(=O)c1nn(CC(=O)N2C[C@H](F)C[C@H]2C(=O)Nc2cccc(Br)n2)c2cnc(-c3cnc(C)nc3)cc12", "note": "[Compound 633, (2S,4R)-1-(2-(3-Acetyl-5-(2-methylpyrimidin-5-yl)-1H-pyrazolo[3,4-c]pyridin-1-yl)acetyl)-N-(6-bromopyridin-2-yl)-4-fluoropyrrolidine-2-carboxamide]", "IC50": "< 1"}, {"compound": "CC(=O)N1CC=C(c2cn(CC(=O)N3C[C@H](F)C[C@H]3C(=O)Nc3cccc(Br)n3)nc2C(N)=O)CC1", "note": "[Compound 727, 4-(1-acetyl-1,2,3,6-Tetrahydropyridin-4-yl)-1-(2-((2S,4R)-2-((6-bromopyridin-2-yl)carbamoyl)-4-fluoropyrrolidin-1-yl)-2-oxoethyl)-1H-pyrazole-3-carboxamide]", "IC50": "> 10"}, {"compound": "CC(=O)c1nn(CC(=O)N2[C@H](C(=O)Nc3nc(Br)ccc3C)C[C@@H]3C[C@@H]32)c2ccc(-c3cnc(C)nc3)cc12", "note": "[Compound 647, (1S,3S,5S)-2-(2-(3-Acetyl-5-(2-methylpyrimidin-5-yl)-1H-indazol-1-yl)acetyl)-N-(6-bromo-3-methylpyridin-2-yl)-2-azabicyclo[3.1.0]hexane-3-carboxamide]", "IC50": "< 1"}, {"compound": "COc1ccc(-c2ccc3c(c2)c(C(C)=O)nn3CC(=O)N2CC[C@H]2C(=O)Nc2cccc(C)n2)cn1", "note": "[Compound 546, (S)-1-(2-(3-Acetyl-5-(6-methoxypyridin-3-yl)-1H-indazol-1-yl)acetyl)-N-(6-methylpyridin-2-yl)azetidine-2-carboxamide]", "IC50": "> 10"}, {"compound": "CC(=O)c1nn(CC(=O)N2C[C@H](F)C[C@H]2C(=O)Nc2nc(C(C)(F)F)ccc2C)c2ccc(-c3cnc(C)nc3)cc12", "note": "[Compound 602, (2S,4R)-1-(2-(3-Acetyl-5-(2-methylpyrimidin-5-yl)-1H-indazol-1-yl)acetyl)-N-(6-(1,1-difluoroethyl)-3-methylpyridin-2-yl)-4-fluoropyrrolidine-2-carboxamide]", "IC50": "< 1"}, {"compound": "CCc1ncc(-c2ccc3c(c2)c(C(C)=O)nn3CC(=O)N2C[C@H](F)C[C@H]2C(=O)Nc2cccc(Br)n2)cn1", "note": "[Compound 566, (2S,4R)-1-(2-(3-Acetyl-5-(2-ethylpyrimidin-5-yl)-1H-indazol-1-yl)acetyl)-N-(6-bromopyridin-2-yl)-4-fluoropyrrolidine-2-carboxamide]", "IC50": "< 1"}, {"compound": "CC(=O)c1nn(CC(=O)N2C[C@H](F)C[C@H]2C(=O)Nc2cccc(OC(F)F)n2)c2ccc(-c3cnc4cc(C)nn4c3)cc12", "note": "[Compound 658, (2S,4R)-1-(2-(3-Acetyl-5-(2-methylpyrazolo[1,5-a]pyrimidin-6-yl)-1H-indazol-1-yl)acetyl)-N-(6-(difluoromethoxy)pyridin-2-yl)-4-fluoropyrrolidine-2-carboxamide]", "IC50": "< 1"}, {"compound": "CC(=O)c1nn(CC(=O)N2C[C@H](F)C[C@H]2C(=O)Nc2cccc(Br)n2)c2ccc(-c3cnc(O)nc3)cc12", "note": "[Compound 604, (2S,4R)-1-(2-(3-Acetyl-5-(2-hydroxypyrimidin-5-yl)-1H-indazol-1-yl)acetyl)-N-(6-bromopyridin-2-yl)-4-fluoropyrrolidine-2-carboxamide]", "IC50": "< 1"}]}, {"target": "Human Factor D (Homo sapiens (Human), UniProt P00746)", "assay": "Human Factor D Assay", "format": "biochemical", "details": "Table 3; Human Factor D 80 nM, substrate Z-L-Lys-SBzl; read-out: IC50 (Stars)", "outline": "as §1", "units": {"IC50": "µM"}, "values": [{"compound": "CC(=O)c1nn(CC(=O)N2C[C@H](F)C[C@H]2C(=O)Nc2cc(F)ncc2Br)c2ccc(-c3cnc(C)nc3)cc12", "note": "[Compound 438, (2S,4R)-1-(2-(3-Acetyl-5-(2-methylpyrimidin-5-yl)-1H-indazol-1-yl)acetyl)-N-(5-bromo-2-fluoropyridin-4-yl)-4-fluoropyrrolidine-2-carboxamide]", "IC50": "< 1"}, {"compound": "CO[C@@H]1CO[C@H]2[C@@H]1OC[C@H]2Oc1ncc(-c2ccc3c(c2)c(C(C)=O)cn3CC(=O)N2C[C@H](F)C[C@H]2C(=O)Nc2cccc(Br)n2)cn1", "note": "[Compound 337, (2S,4R)-1-(2-(3-acetyl-5-(2-(((3R,3aR,6R,6aR)-6-methoxyhexahydrofuro [3,2-b]furan-3-yl)oxy)pyrimidin-5-yl)-1H-indol-1-yl)acetyl)-N-(6-bromopyridin-2-yl)-4-fluoropyrrolidine-2-carboxamide]", "IC50": "< 1"}, {"compound": "CNC(=O)c1nn(CC(=O)N2C[C@H](F)C[C@H]2C(=O)Nc2cccc(Br)n2)c2ccc(-c3cnc(C)nc3)cc12", "note": "[Compound 424, 1-(2-((2S,4R)-2-((6-Bromopyridin-2-yl)carbamoyl)-4-fluoropyrrolidin-1-yl)-2-oxoethyl)-N-methyl-5-(2-methylpyrimidin-5-yl)-1H-indazole-3-carboxamide]", "IC50": "< 1"}, {"compound": "CC(=O)c1nn(CC(=O)N2[C@@H]3C[C@@H]3C[C@H]2C(=O)NC/C(F)=C(\\C)c2cccc(Cl)c2)c2ccc(-c3cnc(C)nc3)cc12", "note": "[Compound 516, (1R,3S,5R)-2-(2-(3-Acetyl-5-(2-methylpyrimidin-5-yl)-1H-indazol-1-yl)acetyl)-N—((Z)-3-(3-chlorophenyl)-2-fluorobut-2-en-1-yl)-2-azabicyclo[3.1.0]hexane-3-carboxamide]", "IC50": "< 1"}]}]}
